US7118895B2, “Process for producing aglycon by using diglycosidase and flavor-improved food containing the aglycon and converting agent to be used in the process” (Amano Enzyme Inc., priority 2000, dated 2006)

System: Crude diglycosidase
Test: Examination of temperature in the conversion into isoflavone aglycons by diglycosidase using soybean materials
Type: biochemical, Penicillium multicolor IAM7153
Set-up: Decomposition efficiency of glycitin family in roasted soy flour / Decomposition efficiency of daidzin family in roasted soy flour / Decomposition efficiency of genistin family in soymilk / Decomposition efficiency of daidzin family in soymilk / Decomposition efficiency of glycitin family in defatted soybean / Decomposition efficiency of daidzin family in defatted soybean: concentration or dose not given beside the values
In short: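 Temperature series (30-80° C.) of crude diglycosidase, diluted to 1.88 AU/mL in 20 mM acetate pH 4.0, acting on roasted soy flour, soymilk, defatted soybean or soy protein concentrate. Samples quenched with ethanol after 0-6 h, centrifuged, filtered and analyzed by HPLC for glycosides versus aglycons.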

[1] = 30° C., heat treatment of enzyme no, reaction time 0 h
[2] = 30° C., heat treatment of enzyme no, reaction time 1 h
[3] = 30° C., heat treatment of enzyme no, reaction time 3 h
[4] = 30° C., heat treatment of enzyme no, reaction time 6 h
[5] = 30° C., heat treatment of enzyme yes, reaction time 6 h
[6] = 30 °C, heat treatment of enzyme: no, 0 h
[7] = 30 °C, heat treatment of enzyme: no, 1 h
[8] = 30 °C, heat treatment of enzyme: no, 3 h
[9] = 30 °C, heat treatment of enzyme: no, 6 h
[10] = 30 °C, heat treatment of enzyme: yes, 6 h
[11] = 45° C., heat treatment of enzyme no, reaction time 0 h
[12] = 45° C., heat treatment of enzyme no, reaction time 1 h
[13] = 45° C., heat treatment of enzyme no, reaction time 3 h
[14] = 45° C., heat treatment of enzyme no, reaction time 6 h
[15] = 45° C., heat treatment of enzyme yes, reaction time 6 h
[16] = 45 °C, heat treatment of enzyme: no, 0 h
[17] = 45 °C, heat treatment of enzyme: no, 1 h
[18] = 45 °C, heat treatment of enzyme: no, 3 h
[19] = 45 °C, heat treatment of enzyme: no, 6 h
[20] = 45 °C, heat treatment of enzyme: yes, 6 h
[21] = 55° C., heat treatment of enzyme no, reaction time 0 h
[22] = 55° C., heat treatment of enzyme no, reaction time 1 h
[23] = 55° C., heat treatment of enzyme no, reaction time 3 h
[24] = 55° C., heat treatment of enzyme no, reaction time 6 h
[25] = 55° C., heat treatment of enzyme yes, reaction time 6 h
[26] = 55 °C, heat treatment of enzyme: no, 0 h
[27] = 55 °C, heat treatment of enzyme: no, 1 h
[28] = 55 °C, heat treatment of enzyme: no, 3 h
[29] = 55 °C, heat treatment of enzyme: no, 6 h
[30] = 55 °C, heat treatment of enzyme: yes, 6 h
[31] = 65° C., heat treatment of enzyme no, reaction time 0 h
[32] = 65° C., heat treatment of enzyme no, reaction time 1 h
[33] = 65° C., heat treatment of enzyme no, reaction time 3 h
[34] = 65° C., heat treatment of enzyme no, reaction time 6 h
[35] = 65° C., heat treatment of enzyme yes, reaction time 6 h
[36] = 65 °C, heat treatment of enzyme: no, 0 h
[37] = 65 °C, heat treatment of enzyme: no, 1 h
[38] = 65 °C, heat treatment of enzyme: no, 3 h
[39] = 65 °C, heat treatment of enzyme: no, 6 h
[40] = 65 °C, heat treatment of enzyme: yes, 6 h
[41] = 80° C., heat treatment of enzyme no, reaction time 0 h
[42] = 80° C., heat treatment of enzyme no, reaction time 1 h
[43] = 80° C., heat treatment of enzyme no, reaction time 3 h
[44] = 80° C., heat treatment of enzyme no, reaction time 6 h
[45] = 80° C., heat treatment of enzyme yes, reaction time 6 h
[46] = 80 °C, heat treatment of enzyme: no, 0 h
[47] = 80 °C, heat treatment of enzyme: no, 1 h
[48] = 80 °C, heat treatment of enzyme: no, 3 h
[49] = 80 °C, heat treatment of enzyme: no, 6 h
[50] = 80 °C, heat treatment of enzyme: yes, 6 h

With `O=c1c(-c2ccc(O)cc2)coc2cc(O[C@@H]3O[C@H](CO)[C@@H](O)[C@H](O)[C@H]3O)cc(O)c12` [genistin] the “Decomposition efficiency of genistin family in concentrated soybean protein” value [1] was 49.8%, the “Decomposition efficiency of genistin family in defatted soybean” value [1] was 38.0% and the “Decomposition efficiency of genistin family in concentrated soybean protein” value [2] was 41.1%. The “Decomposition efficiency of genistin family in defatted soybean” value [2] was “not detected”, the “Decomposition efficiency of genistin family in concentrated soybean protein” value [3] was 30.3% and the “Decomposition efficiency of genistin family in defatted soybean” value [3] was “not detected”. For the same compound, the “Decomposition efficiency of genistin family in concentrated soybean protein” value [4] was 19.7%, the “Decomposition efficiency of genistin family in defatted soybean” value [4] was 7.6% and the “Decomposition efficiency of genistin family in concentrated soybean protein” value [5] was 51.8%. The “Decomposition efficiency of genistin family in defatted soybean” value [5] was “not detected”, the “Decomposition efficiency of genistin family in roasted soy flour” value [6] was 49.7% and the “Decomposition efficiency of genistin family in soymilk” value (“Decomposition efficiency … in soymilk” for short) [6] was 30.7%. For the same compound, the “Decomposition efficiency of genistin family in roasted soy flour” value [7] was 25.7%, the “Decomposition efficiency … in soymilk” value [7] was “not detected” and the “Decomposition efficiency of genistin family in roasted soy flour” value [8] was 12.0%. For the same compound, the “Decomposition efficiency … in soymilk” value [8] was “not detected”, the “Decomposition efficiency of genistin family in roasted soy flour” value [9] was 5.5% and the “Decomposition efficiency … in soymilk” value [9] was “not detected”. For the same compound, the “Decomposition efficiency of genistin family in roasted soy flour” value [10] was 50.3%, the “Decomposition efficiency … in soymilk” value [10] was 31.2% and the “Decomposition efficiency of genistin family in concentrated soybean protein” value [11] was 49.7%. For the same compound, the “Decomposition efficiency of genistin family in defatted soybean” value [11] was 37.0%, the “Decomposition efficiency of genistin family in concentrated soybean protein” value [12] was 22.2% and the “Decomposition efficiency of genistin family in defatted soybean” value [12] was 0.9%. For the same compound, the “Decomposition efficiency of genistin family in concentrated soybean protein” value [13] was 15.6%, the “Decomposition efficiency of genistin family in defatted soybean” value [13] was 1.0% and the “Decomposition efficiency of genistin family in concentrated soybean protein” value [14] was 5.3%. The “Decomposition efficiency of genistin family in defatted soybean” value [14] was 1.0%, the “Decomposition efficiency of genistin family in concentrated soybean protein” value [15] was 54.5% and the “Decomposition efficiency of genistin family in defatted soybean” value [15] was 1.3%. The “Decomposition efficiency of genistin family in roasted soy flour” value [16] was 50.2%, the “Decomposition efficiency … in soymilk” value [16] was 31.0% and the “Decomposition efficiency of genistin family in roasted soy flour” value [17] was 3.7%. For the same compound, the “Decomposition efficiency … in soymilk” value [17] was “not detected”, the “Decomposition efficiency of genistin family in roasted soy flour” value [18] was 5.6% and the “Decomposition efficiency … in soymilk” value [18] was “not detected”. The “Decomposition efficiency of genistin family in roasted soy flour” value [19] was 1.2%, the “Decomposition efficiency … in soymilk” value [19] was “not detected” and the “Decomposition efficiency of genistin family in roasted soy flour” value [20] was 51.7%. The “Decomposition efficiency … in soymilk” value [20] was 34.4%, the “Decomposition efficiency of genistin family in concentrated soybean protein” value [21] was 50.1% and the “Decomposition efficiency of genistin family in defatted soybean” value [21] was 38.0%. The “Decomposition efficiency of genistin family in concentrated soybean protein” value [22] was 7.0%, the “Decomposition efficiency of genistin family in defatted soybean” value [22] was 0.0% and the “Decomposition efficiency of genistin family in concentrated soybean protein” value [23] was 0.8%. For the same compound, the “Decomposition efficiency of genistin family in defatted soybean” value [23] was 0.0%, the “Decomposition efficiency of genistin family in concentrated soybean protein” value [24] was “not detected” and the “Decomposition efficiency of genistin family in defatted soybean” value [24] was 0.0%. The “Decomposition efficiency of genistin family in concentrated soybean protein” value [25] was 52.3%, the “Decomposition efficiency of genistin family in defatted soybean” value [25] was 0.0% and the “Decomposition efficiency of genistin family in roasted soy flour” value [26] was 49.7%. The “Decomposition efficiency … in soymilk” value [26] was 31.6%, the “Decomposition efficiency of genistin family in roasted soy flour” value [27] was 1.2% and the “Decomposition efficiency … in soymilk” value [27] was “not detected”. For the same compound, the “Decomposition efficiency of genistin family in roasted soy flour” value [28] was “not detected”, the “Decomposition efficiency … in soymilk” value [28] was “not detected” and the “Decomposition efficiency of genistin family in roasted soy flour” value [29] was “not detected”. For the same compound, the “Decomposition efficiency … in soymilk” value [29] was “not detected”, the “Decomposition efficiency of genistin family in roasted soy flour” value [30] was 54.0% and the “Decomposition efficiency … in soymilk” value [30] was 37.4%. For the same compound, the “Decomposition efficiency of genistin family in concentrated soybean protein” value [31] was 49.8%, the “Decomposition efficiency of genistin family in defatted soybean” value [31] was 37.0% and the “Decomposition efficiency of genistin family in concentrated soybean protein” value [32] was “not detected”. The “Decomposition efficiency of genistin family in defatted soybean” value [32] was 0.0%, the “Decomposition efficiency of genistin family in concentrated soybean protein” value [33] was “not detected” and the “Decomposition efficiency of genistin family in defatted soybean” value [33] was 1.8%. The “Decomposition efficiency of genistin family in concentrated soybean protein” value [34] was “not detected”, the “Decomposition efficiency of genistin family in defatted soybean” value [34] was 3.3% and the “Decomposition efficiency of genistin family in concentrated soybean protein” value [35] was 50.8%. For the same compound, the “Decomposition efficiency of genistin family in defatted soybean” value [35] was 28.2%, the “Decomposition efficiency of genistin family in roasted soy flour” value [36] was 49.7% and the “Decomposition efficiency … in soymilk” value [36] was 30.7%. The “Decomposition efficiency of genistin family in roasted soy flour” value [37] was “not detected”, the “Decomposition efficiency … in soymilk” value [37] was “not detected” and the “Decomposition efficiency of genistin family in roasted soy flour” value [38] was “not detected”. For the same compound, the “Decomposition efficiency … in soymilk” value [38] was “not detected”, the “Decomposition efficiency of genistin family in roasted soy flour” value [39] was “not detected” and the “Decomposition efficiency … in soymilk” value [39] was “not detected”. The “Decomposition efficiency of genistin family in roasted soy flour” value [40] was 50.7%, the “Decomposition efficiency … in soymilk” value [40] was 44.4% and the “Decomposition efficiency of genistin family in concentrated soybean protein” value [41] was 49.7%. The “Decomposition efficiency of genistin family in defatted soybean” value [41] was 37.0%, the “Decomposition efficiency of genistin family in concentrated soybean protein” value [42] was 29.6% and the “Decomposition efficiency of genistin family in defatted soybean” value [42] was 9.6%. The “Decomposition efficiency of genistin family in concentrated soybean protein” value [43] was 30.3%, the “Decomposition efficiency of genistin family in defatted soybean” value [43] was 22.1% and the “Decomposition efficiency of genistin family in concentrated soybean protein” value [44] was 32.3%. The “Decomposition efficiency of genistin family in defatted soybean” value [44] was 35.3%, the “Decomposition efficiency of genistin family in concentrated soybean protein” value [45] was 51.9% and the “Decomposition efficiency of genistin family in defatted soybean” value [45] was 57.8%. For the same compound, the “Decomposition efficiency of genistin family in roasted soy flour” value [46] was 50.2%, the “Decomposition efficiency … in soymilk” value [46] was 31.0% and the “Decomposition efficiency of genistin family in roasted soy flour” value [47] was 7.8%. The “Decomposition efficiency … in soymilk” value [47] was 10.6%, the “Decomposition efficiency of genistin family in roasted soy flour” value [48] was 9.1% and the “Decomposition efficiency … in soymilk” value [48] was 24.3%. The “Decomposition efficiency of genistin family in roasted soy flour” value [49] was 18.4%, the “Decomposition efficiency … in soymilk” value [49] was 43.9% and the “Decomposition efficiency of genistin family in roasted soy flour” value [50] was 52.2%. The “Decomposition efficiency … in soymilk” value [50] was 64.5%.
